Laboratory results: patent US10238631B2, “Sesquiterpene derivatives and their use in inflammation or cancer treatment” (Academia Sinica, priority 2014, dated 2019)

test system: TS/A (ER+, Her2−) murine mammary cancer cells; assay: MTT cell viability assay, TS/A cells; assay type: cell-based; details: Mus musculus, 24 h, read-out: IC50 on cell viability, TS/A (ER+, Her2−)
Description: (§1) Normal or cancer cells (2×10^3 to 1×10^4 cells/well) were seeded in 96-well plate for overnight and treated with different compounds for 24 h to 72 h. Cells growth were determined by MTT-based colorimetric assays according to. Viability of the test cells treated with vehicle (0.5% DMSO) only was defined as 100% viable. Survival of cells after treatment with DETDs was calculated using the following formula: viable cell number (%)=OD570 (treated cell culture)/OD570 (vehicle control)×100.
(§2) Sixty DETDs were derived from parental compound […] and tested for anti-breast cancer cell activity.

Compound	IC50 [µM]
C=C1C(=O)OC2CC3=C[C@@H](C/C(C)=C/C(OC(=O)CC(C)(CC)OC(C)=O)[C@H]12)OC3=O (stereo partly drawn) [DETD-11]	2.9
C=C(C)C(=O)OC1/C=C(\C)C[C@@H]2C=C(CC3OC(=O)C(=C)[C@@H]13)C(=O)O2 (stereo partly drawn) [DETD-4]	1.8

test system: MDA-MB-231 (ER−, PR−, Her2−) human breast cancer cells; assay: MTT cell viability assay, MDA-MB-231 cells; assay type: cell-based; details: Homo sapiens, MDA-MB-231, 24 h, read-out: IC50 on cell viability, MDA-MB-231 (ER−, PR−, Her2−)
Description: as §1, §2

Compound	IC50 [µM]
C=C1C(=O)OC2CC3=C[C@@H](C/C(C)=C/C(OC(=O)CC(C)(CC)OC(C)=O)[C@H]12)OC3=O (stereo partly drawn) [DETD-11]	> 7.5
C=C(C)C(=O)OC1/C=C(\C)C[C@@H]2C=C(CC3OC(=O)C(=C)[C@@H]13)C(=O)O2 (stereo partly drawn) [DETD-4]	6.2

test system: MCF-7 (ER+, Her2−) human breast cancer cells; assay: MTT cell viability assay, MCF-7 cells; assay type: cell-based; details: MCF7, 24 h, read-out: IC50 on cell viability, MCF-7 (ER+, Her2−)
Description: as §1, §2

Compound	IC50 [µM]
C=C1C(=O)OC2CC3=C[C@@H](C/C(C)=C/C(OC(=O)CC(C)(CC)OC(C)=O)[C@H]12)OC3=O (stereo partly drawn) [DETD-11]	4.2
C=C(C)C(=O)OC1/C=C(\C)C[C@@H]2C=C(CC3OC(=O)C(=C)[C@@H]13)C(=O)O2 (stereo partly drawn) [DETD-4]	3.4

test system: M10 normal mammary epithelial cells; assay: MTT cell viability assay, M10 normal cells; assay type: cell-based, human; details: Homo sapiens, Epithelial cell, 24 h
Description: as §1, §2

Compound	IC50 [µM]
C=C1C(=O)OC2CC3=C[C@@H](C/C(C)=C/C(OC(=O)CC(C)(CC)OC(C)=O)[C@H]12)OC3=O (stereo partly drawn) [DETD-11]	> 7.5
C=C(C)C(=O)OC1/C=C(\C)C[C@@H]2C=C(CC3OC(=O)C(=C)[C@@H]13)C(=O)O2 (stereo partly drawn) [DETD-4]	> 7.5

test system: B16-F10 (NRAS mutation); assay: MTT cell viability assay, B16-F10 melanoma; assay type: cell-based; details: Mus musculus, B16-F10, 24 h, 24 h, read-out: IC50 on cell viability, B16-F10 (NRAS mutation)
Description: as §1
(§3) Several genes are involved in melanoma development and pathology; specifically, mutation in V-raf murine sarcoma viral oncogene homolog B1 (B-RAF) occurs approximately 50-60% and in neuroblastoma RAS viral oncogene homolog (N-RAS) occurs about 30% of malignant melanomas. A spectrum of wild-type or mutated melanoma cell lines including B16-F10, MeWo, A375, A2058, HTB-68, and melanocyte were used to study anti-melanoma cell proliferation activity of parental phytocompound DET and newly synthesized DETDs.

Compound	IC50 [µM]
C=C(C)C(=O)OC1/C=C(\C)C[C@@H]2C=C(CC3OC(=O)C(=C)[C@@H]13)C(=O)O2 (stereo partly drawn) [DETD-4]	4.5

same assay, conditions: Mus musculus, B16-F10, 24 h, read-out: IC50 on cell viability, B16-F10 (NRAS mutation)

Compound	IC50 [µM]
C=C1C(=O)OC2CC3=C[C@@H](C/C(C)=C/C(OC(=O)CC(C)(CC)OC(C)=O)[C@H]12)OC3=O (stereo partly drawn) [DETD-11]	> 10

test system: MeWo (No NRAS or BRAF mutation); assay: MTT cell viability assay, MeWo melanoma; assay type: cell-based, human; details: Homo sapiens, MeWo, 24 h
Description: as §1, §3

Compound	IC50 [µM]
C=C1C(=O)OC2CC3=C[C@@H](C/C(C)=C/C(OC(=O)CC(C)(CC)OC(C)=O)[C@H]12)OC3=O (stereo partly drawn) [DETD-11]	> 10
C=C(C)C(=O)OC1/C=C(\C)C[C@@H]2C=C(CC3OC(=O)C(=C)[C@@H]13)C(=O)O2 (stereo partly drawn) [DETD-4]	> 10

test system: HTB-68 (NRAS mutation); assay: MTT cell viability assay, HTB-68 melanoma; assay type: cell-based, human; details: Homo sapiens, 24 h
Description: as §1, §3

Compound	IC50 [µM]
C=C1C(=O)OC2CC3=C[C@@H](C/C(C)=C/C(OC(=O)CC(C)(CC)OC(C)=O)[C@H]12)OC3=O (stereo partly drawn) [DETD-11]	> 10
C=C(C)C(=O)OC1/C=C(\C)C[C@@H]2C=C(CC3OC(=O)C(=C)[C@@H]13)C(=O)O2 (stereo partly drawn) [DETD-4]	> 10

test system: A2058 (BRAF mutation); assay: MTT cell viability assay, A2058 melanoma; assay type: cell-based, human; details: Homo sapiens, A2058, 24 h
Description: as §1, §3

Compound	IC50 [µM]
C=C1C(=O)OC2CC3=C[C@@H](C/C(C)=C/C(OC(=O)CC(C)(CC)OC(C)=O)[C@H]12)OC3=O (stereo partly drawn) [DETD-11]	> 10
C=C(C)C(=O)OC1/C=C(\C)C[C@@H]2C=C(CC3OC(=O)C(=C)[C@@H]13)C(=O)O2 (stereo partly drawn) [DETD-4]	> 10

test system: A375 (BRAF mutation); assay: MTT cell viability assay, A375 melanoma; assay type: cell-based, human; details: Homo sapiens, A-375, 24 h, 24 h, MTT; read-out: IC50 on cell viability, A375 (BRAF mutation)
Description: as §1, §3
To investigate whether or not DETD-35 show synergism with PLX4032 against A375 melanoma cells, we performed anti-proliferation assay using MTT reagent to obtain IC50 of each compound. […] The synergistic effect was quantified by combination index (CI) analysis as stated above.

Compound	IC50 [µM]
C=C(C)C(=O)OC1/C=C(\C)C[C@@H]2C=C(CC3OC(=O)C(=C)[C@@H]13)C(=O)O2 (stereo partly drawn) [DETD-4]	> 10

same assay, conditions: Homo sapiens, A-375, 24 h, read-out: IC50 on cell viability, A375 (BRAF mutation)

Compound	IC50 [µM]
C=C1C(=O)OC2CC3=C[C@@H](C/C(C)=C/C(OC(=O)CC(C)(CC)OC(C)=O)[C@H]12)OC3=O (stereo partly drawn) [DETD-11]	> 10

test system: Melanocyte (Normal cells); assay: MTT cell viability assay, normal melanocytes; assay type: cell-based, human; details: Homo sapiens, Melanocyte, 24 h
Description: as §1, §3

Compound	IC50 [µM]
C=C1C(=O)OC2CC3=C[C@@H](C/C(C)=C/C(OC(=O)CC(C)(CC)OC(C)=O)[C@H]12)OC3=O (stereo partly drawn) [DETD-11]	> 10
C=C(C)C(=O)OC1/C=C(\C)C[C@@H]2C=C(CC3OC(=O)C(=C)[C@@H]13)C(=O)O2 (stereo partly drawn) [DETD-4]	> 10

test system: RAW264.7 (normal macrophage); assay: MTT cell viability assay, RAW264.7 macrophages; assay type: cell-based, mouse; details: Mus musculus, RAW264.7, 24 h
Description: as §1
(§4) Marcophages (2×10^5 cells/well in 96-well plate) were treated with compounds for 1 h, then incubated further for 24 h with or without the presence of […] LPS in the cultural medium. Nitrite levels in cell culture medium were determined by the Griess reaction method. In parallel to the Griess assays, macrophage cell viabilities were determined using the MTT based colorimetric assay.

Compound	IC50 [µM]
C=C1C(=O)OC2CC3=C[C@@H](C/C(C)=C/C(OC(=O)CC(C)(CC)OC(C)=O)[C@H]12)OC3=O (stereo partly drawn) [DETD-11]	> 10
C=C(C)C(=O)OC1/C=C(\C)C[C@@H]2C=C(CC3OC(=O)C(=C)[C@@H]13)C(=O)O2 (stereo partly drawn) [DETD-4]	> 10

test system: LPS-induced nitric oxide (NO) production in RAW 264.7 cells; assay: Nitric oxide production in LPS-stimulated macrophages (Griess); assay type: cell-based, mouse; details: Mus musculus; LPS-stimulated RAW264.7, nitrite 24 h after LPS
Description: as §4
LPS from the outer membrane of Gram-negative bacteria can induce mRNA or protein levels of inducible nitric oxide synthase (iNOS), which catalyzes oxidative deamination of L-arginine to produce nitric oxide (NO). Once NO is predominantly produced, it interacts with superoxide anion and generates highly reactive oxidants resulting in cellular inflammation, DNA, protein and tissue damages, carcinogenesis, and antiapoptosis. We used in vitro LPS stimulated inflammation in RAW264.7 cell system to evaluate the effect of DET and its derivatives DETDs on NO production by determination of nitrite level (equivalent to NO level) in culture medium 24 h after LPS treatment.

Compound	IC50 [µM]
C=C1C(=O)OC2CC3=C[C@@H](C/C(C)=C/C(OC(=O)CC(C)(CC)OC(C)=O)[C@H]12)OC3=O (stereo partly drawn) [DETD-11]	2.3
C=C(C)C(=O)OC1/C=C(\C)C[C@@H]2C=C(CC3OC(=O)C(=C)[C@@H]13)C(=O)O2 (stereo partly drawn) [DETD-4]	2.2
